Experimental data taken from patent US20250163052A1, “cGAS INHIBITORS AND USES THEREOF” (Cornell University, priority 2022, published 2025).

Columns and labels:
[1] = target: h-cGAS (Homo sapiens, UniProt Q8N884); test: Cell-free human cGAS enzyme inhibition assay (ATP depletion, Kinase-Glo Max); format: biochemical; details: 3 h; for inhibition at 1 µM: read-out: h-cGAS, conc. 1 μM; for inhibition at 10 µM: read-out: h-cGAS, conc. 10 μM
Experimental: (§1) Cell-free mouse and human cGAS enzyme inhibition assay (Table 2). Activity of all compounds (in Table 1) against m-cGAS (30 nM) and or h-cGAS, (100 nM) was determined by measuring the conversion of ATP and GTP (100 μM each) to cGAMP in the presence of dsDNA (5 ug/mL) in a reaction buffer composed of Tris-HCl (20 mM, pH7.4), NaCl (150 mM), MnCl2 (0.2 mM, h-cGAS) or MgCl2 (5 mM, m-cGAS) and Tween-20 (0.01%), and the remaining ATP concentration using Kinase-Glo®Max Luminescent Kinase Assay (Promega, Madison, WI), as described (Lama, et. al., 2019). Briefly, 10 μl of a master mix of 0.4 mM ATP, 0.4 mM GTP, 0.02 mg/mL dsDNA in the reaction buffer supplemented with 2 mM DTT was added to reaction wells containing TDI-6570 or TDI-8246 (2× of the desired concentration) in the same buffer ([…]) using a Thermo 8-channel Multidrop Combi dispenser. Next, 10 μl of a 4×m-cGAS (0.120 μM) or h-cGAS (0.4 μM) solution in the reaction buffer supplemented with 2 mM DTT was added to appropriate wells. Similar sets of reactions without cGAS or the inhibitor was set by adding the buffer alone. The reactions with the plates sealed were incubated at 37° C. (1 hour for m-cGAS and 3 hours for h-cGAS) and stopped by addition of 40 μl of the Kinase-Glo®Max. The luminescence was recorded in relative light units (RLUs) using a Biotek Synergy H1 Hybrid plate reader (BioTek, Winooski, VT). […] All reactions were run in triplicates and calculated using GraphPad Prism 9. The values represent mean IC50±S.D.

[2] = target: m-cGAS (Mus musculus, UniProt Q8C6L5); test: Cell-free mouse cGAS enzyme inhibition assay (ATP depletion, Kinase-Glo Max); format: biochemical; details: 1 h; for inhibition at 1 µM: read-out: m-cGAS, conc. 1 μM; for inhibition at 10 µM: read-out: m-cGAS, conc. 10 μM
Sequence of m-cGAS (Q8C6L5 whole entry): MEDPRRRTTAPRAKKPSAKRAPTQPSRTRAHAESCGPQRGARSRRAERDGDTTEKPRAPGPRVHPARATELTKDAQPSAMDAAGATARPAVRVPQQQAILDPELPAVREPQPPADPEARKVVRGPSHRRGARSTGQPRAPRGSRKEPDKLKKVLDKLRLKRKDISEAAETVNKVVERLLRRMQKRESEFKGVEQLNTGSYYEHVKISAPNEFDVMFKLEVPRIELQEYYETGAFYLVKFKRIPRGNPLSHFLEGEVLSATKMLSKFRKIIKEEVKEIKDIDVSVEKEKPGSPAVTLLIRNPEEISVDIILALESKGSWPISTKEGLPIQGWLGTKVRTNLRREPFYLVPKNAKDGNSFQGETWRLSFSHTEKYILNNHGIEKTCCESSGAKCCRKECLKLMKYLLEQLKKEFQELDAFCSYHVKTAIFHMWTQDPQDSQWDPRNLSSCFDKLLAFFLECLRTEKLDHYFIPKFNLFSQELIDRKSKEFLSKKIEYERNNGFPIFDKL
Experimental: as §1

[3] = system: NFkB-SEAP; test: THP1-Dual cells transfected with DNA, nfkb expression (Quantiblue); format: cell-based; details: Homo sapiens; for inhibition at 10 µM: THP-1, 10 μM; for inhibition at 30 µM: THP-1, 30 μM
Experimental: (§2) Evaluation of active cGAS inhibitors in THP1 cells (Table 3). Cellular activity of all compounds (in Table 3) was determined using THP1-Dual™ cells as described (Lama et. al., 2019). THP1-Dual™ cells (Invivogen) (50000 cells in 100 μl media) were seeded into each well of a 96-well plate and treated with compounds at various dilution for 4 hours. Subsequently, cells were transfected with DNA (2 ug/ml) and lipofectamine and incubate the cells were incubated overnight. Ifnb expression was measured in cell supernatant using Quantiluc, nfkb expression was determined using Quantiblue, and cell viability using Promega® CellTiter-Glo®.

[4] = system: IFNB; test: THP1-Dual cells transfected with DNA, Ifnb expression (Quantiluc); format: cell-based; details: Homo sapiens; for inhibition at 10 µM: THP-1, 10 μM; for inhibition at 30 µM: THP-1, 30 μM
Experimental: as §2

[5] = system: THP1 cells; test: THP1-Dual cells, cell viability (CellTiter-Glo); format: cell-based
Experimental: as §2

Sequence of h-cGAS (Q8N884 whole entry): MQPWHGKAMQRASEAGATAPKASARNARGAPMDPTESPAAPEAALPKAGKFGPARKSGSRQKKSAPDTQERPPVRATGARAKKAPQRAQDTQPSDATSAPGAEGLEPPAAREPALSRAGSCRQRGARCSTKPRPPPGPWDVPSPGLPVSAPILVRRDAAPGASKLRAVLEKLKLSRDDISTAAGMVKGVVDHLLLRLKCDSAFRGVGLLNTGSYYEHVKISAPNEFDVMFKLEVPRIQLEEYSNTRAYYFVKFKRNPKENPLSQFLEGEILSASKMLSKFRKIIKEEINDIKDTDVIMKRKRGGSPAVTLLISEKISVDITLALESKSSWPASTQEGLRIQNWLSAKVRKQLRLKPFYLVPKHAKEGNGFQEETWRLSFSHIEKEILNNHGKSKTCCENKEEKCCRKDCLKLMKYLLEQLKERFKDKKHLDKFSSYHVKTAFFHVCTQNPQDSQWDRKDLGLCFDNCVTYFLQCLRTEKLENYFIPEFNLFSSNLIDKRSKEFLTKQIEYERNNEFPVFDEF

SMILES | inhibition at 1 µM [1] [%] | inhibition at 10 µM [1] [%] | inhibition at 1 µM [2] [%] | inhibition at 10 µM [2] [%] | inhibition at 10 µM [3] [%] | inhibition at 30 µM [3] [%] | inhibition at 10 µM [4] [%] | inhibition at 30 µM [4] [%] | Cell viability 10 μM [5] | Cell viability 30 μM [5]
NCC(=O)N1CCc2c(sc3c(Cl)c(Cl)cc(-c4cncnc4)c23)C1 [Compound 73] | 0 to 24 | 50 to 74 | 0 to 24 | 50 to 74 | < 24 | 75 to 100 | < 24 | 75 to 100 | +++ (+, ++, and +++ mean the compound respectively shows 25-49%; 50-74%; or 75-100% viability to cells) | − (Cell viability <24%, in THP1 cells is expressed as “−”)
Cn1cnc(-c2cc(Cl)c(Cl)c3sc4c(c23)CCN(C(=O)CN)C4)c1 [Compound 93] | 0 to 24 | 50 to 74 | 0 to 24 | 50 to 74 | < 24 | 50 to 74 | < 24 | 75 to 100 | +++ (+, ++, and +++ mean the compound respectively shows 25-49%; 50-74%; or 75-100% viability to cells) | − (Cell viability <24%, in THP1 cells is expressed as “−”)
NCC(=O)N1CCc2c(sc3c(Cl)c(Cl)cc(-c4ccsc4)c23)C1 [Compound 82] | 0 to 24 | 50 to 74 | 0 to 24 | 50 to 74 | 75 to 100 | 75 to 100 | 50 to 74 | 75 to 100 | +++ (+, ++, and +++ mean the compound respectively shows 25-49%; 50-74%; or 75-100% viability to cells) | + (+, ++, and +++ mean the compound respectively shows 25-49%; 50-74%; or 75-100% viability to cells)
NCC(=O)N1CCc2c(sc3c(Cl)c(Cl)cc(-c4cnccn4)c23)C1 [Compound 90] | 0 to 24 | 50 to 74 | 25 to 49 | 50 to 74 | 25 to 49 | 75 to 100 | 25 to 49 | 50 to 74 | +++ (+, ++, and +++ mean the compound respectively shows 25-49%; 50-74%; or 75-100% viability to cells) | − (Cell viability <24%, in THP1 cells is expressed as “−”)
Cc1ccn(-c2cc(Cl)c(Cl)c3sc4c(c23)CCN(C(=O)CN)C4)n1 [Compound 96] | 0 to 24 | 25 to 49 |  | 25 to 49 | < 24 | < 24 | < 24 | < 24 | +++ (+, ++, and +++ mean the compound respectively shows 25-49%; 50-74%; or 75-100% viability to cells) | +++ (+, ++, and +++ mean the compound respectively shows 25-49%; 50-74%; or 75-100% viability to cells)
Cn1c2c(c3c(Br)cc(Cl)c(Cl)c31)CN(C(=O)CN)CC2 [Compound 6] | 0 to 24 | 75 to 100 |  | 75 to 100 | < 24 | 25 to 49 | < 24 | < 24 | +++ (+, ++, and +++ mean the compound respectively shows 25-49%; 50-74%; or 75-100% viability to cells) | +++ (+, ++, and +++ mean the compound respectively shows 25-49%; 50-74%; or 75-100% viability to cells)
CN1c2c(Cl)c(Cl)cc(-c3cncnc3)c2C2CN(C(=O)CN)CCC21 (centres unmarked) [Compound 9] | 50 to 74 | 75 to 100 |  | 0 to 24 | < 24 | < 24 | < 24 | < 24 | +++ (+, ++, and +++ mean the compound respectively shows 25-49%; 50-74%; or 75-100% viability to cells) | +++ (+, ++, and +++ mean the compound respectively shows 25-49%; 50-74%; or 75-100% viability to cells)
Cn1ccc(-c2cc(Cl)c(Cl)c3sc4c(c23)CCN(C(=O)CN)C4)n1 [Compound 83] | 25 to 49 | 50 to 74 | 25 to 49 | 75 to 100 | 75 to 100 | 75 to 100 | 50 to 74 | 75 to 100 | ++ (+, ++, and +++ mean the compound respectively shows 25-49%; 50-74%; or 75-100% viability to cells) | − (Cell viability <24%, in THP1 cells is expressed as “−”)
